Experimental data: ChEMBL document CHEMBL4334507, “Development and Characterization of a Fluorescent Probe for GLS1 and the Application for High-Throughput Screening of Allosteric Inhibitors” (J Med Chem, 2019); call rule not given here
Converted amounts (≈) assume the structure as drawn.

Columns and labels:
HCT-116 = experiment: Antiproliferative activity against human HCT116 cells assessed as reduction in cell viability incubated for 72 hrs by MTT assay; type: functional, cell-based; details: HCT-116, 72 h
[1] = target: T1, Glutaminase kidney isoform, mitochondrial (Homo sapiens, UniProt O94925); experiment: Inhibition of N-[2-[(3',6'-dihydroxy-1-oxo-spiro[isobenzofuran-3,9'-xanthene]-5-yl)carbamothioylamino]ethyl]-N'-[6-[4-[5-[[2-(2-pyridyl)acetyl]amino]-1,3,4-thiadiazol-2-yl]butyl]pyridazin-3-yl]pentanediamide binding to human GLS1 expressed in Escherichia coli strain BL21 (DE3)pLysS by fluorescence polarization binding assay
T1 sequence (O94925 whole entry): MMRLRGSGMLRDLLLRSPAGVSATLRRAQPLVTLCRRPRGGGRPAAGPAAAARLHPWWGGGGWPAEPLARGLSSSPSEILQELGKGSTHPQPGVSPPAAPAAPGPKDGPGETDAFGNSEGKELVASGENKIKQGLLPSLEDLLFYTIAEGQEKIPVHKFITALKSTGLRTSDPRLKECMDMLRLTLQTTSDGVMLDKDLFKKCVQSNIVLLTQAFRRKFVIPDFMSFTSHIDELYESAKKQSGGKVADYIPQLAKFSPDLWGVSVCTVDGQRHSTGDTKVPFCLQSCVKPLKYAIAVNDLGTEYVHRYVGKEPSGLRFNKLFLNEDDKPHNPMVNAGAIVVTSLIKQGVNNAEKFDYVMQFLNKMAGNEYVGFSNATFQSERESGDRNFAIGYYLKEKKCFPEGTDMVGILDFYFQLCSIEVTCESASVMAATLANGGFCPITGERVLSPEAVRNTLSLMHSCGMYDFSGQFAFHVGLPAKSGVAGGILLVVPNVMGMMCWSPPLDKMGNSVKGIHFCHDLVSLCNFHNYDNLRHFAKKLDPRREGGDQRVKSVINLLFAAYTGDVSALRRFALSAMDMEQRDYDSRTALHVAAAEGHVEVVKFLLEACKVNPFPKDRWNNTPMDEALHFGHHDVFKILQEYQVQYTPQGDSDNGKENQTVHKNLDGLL

[2] = target: T1, Glutaminase kidney isoform, mitochondrial; experiment: Inhibition of human GLS1 expressed in Escherichia coli strain BL21 (DE3)pLysS pre-incubated for 10 mins before glutamine addition and measured after 60 mins by bovine liver glutamate dehydrogenase based coupled enzyme assay
MDA-MB-436 = experiment: Antiproliferative activity against human MDA-MB-436 cells assessed as reduction in cell viability incubated for 72 hrs by MTT assay; type: functional, cell-based; details: MDA-MB-436, 72 h
[3] = target: T1, Glutaminase kidney isoform, mitochondrial; experiment: (§1) Binding affinity to human GLS1 expressed in Escherichia coli strain BL21 (DE3)pLysS by SPR assay
[4] = target: T2, Glutaminase kidney isoform, mitochondrial (Homo sapiens) (UniProt O94925)
T2 sequence (whole entry): T1 sequence (O94925 whole entry)
Description: Binding affinity to human GLS1 expressed in Escherichia coli strain BL21 (DE3)pLysS assessed as change in melting temperature by SYPRO orange dye based protein thermal shift assay

[5] = Intrinsic aqueous solubility incubated for 72 hrs by LC-MS based shake-flask method; type: physicochemical; details: buffer
[6] = Ratio of intrinsic aqueous solubility of the test compound to CB839 incubated for 72 hrs by LC-MS based shake-flask method; type: physicochemical; details: buffer
[7] = Distribution coefficient, logD of the compound incubated for 72 hrs by LC-MS based shake-flask method; type: physicochemical; details: octanol/water
[8] = target: T2, Glutaminase kidney isoform, mitochondrial (Homo sapiens); experiment: as §1
[9] = target: Serum albumin (Bos taurus) (UniProt P02769); experiment: Binding affinity to BSA by fluorescence polarization binding assay relative to control; details: bovine
Chain of Serum albumin (Bos taurus) (P02769 whole entry, looked up, canonical isoform): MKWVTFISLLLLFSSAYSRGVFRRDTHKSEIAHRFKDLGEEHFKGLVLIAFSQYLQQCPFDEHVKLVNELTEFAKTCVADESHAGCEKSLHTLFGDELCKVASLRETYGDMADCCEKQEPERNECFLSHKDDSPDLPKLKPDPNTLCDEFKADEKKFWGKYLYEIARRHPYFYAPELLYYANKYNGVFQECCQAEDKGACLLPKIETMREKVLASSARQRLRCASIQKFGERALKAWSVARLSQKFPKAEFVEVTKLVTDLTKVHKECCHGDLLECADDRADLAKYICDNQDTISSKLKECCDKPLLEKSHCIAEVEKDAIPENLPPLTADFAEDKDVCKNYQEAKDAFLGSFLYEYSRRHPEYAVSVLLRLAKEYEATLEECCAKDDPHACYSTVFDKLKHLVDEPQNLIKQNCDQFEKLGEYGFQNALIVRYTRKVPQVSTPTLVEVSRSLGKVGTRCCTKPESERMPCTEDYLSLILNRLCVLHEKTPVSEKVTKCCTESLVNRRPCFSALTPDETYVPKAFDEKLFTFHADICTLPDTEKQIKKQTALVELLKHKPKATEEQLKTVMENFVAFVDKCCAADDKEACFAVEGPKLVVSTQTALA

[10] = target: T1, Glutaminase kidney isoform, mitochondrial; experiment: Binding affinity to human GLS1 expressed in Escherichia coli strain BL21 (DE3)pLysS by fluorescence polarization binding assay
[11] = target: T2, Glutaminase kidney isoform, mitochondrial (Homo sapiens); experiment: Binding affinity to 1 uM human GLS1 expressed in Escherichia coli strain BL21 (DE3)pLysS by fluorescence polarization binding assay relative to control

IC50 (HCT-116)	IC50 [1]	IC50 [2]	IC50 (MDA-MB-436)	SMILES	also measured
180 nM	73 nM	44 nM	210 nM	O=C(CCc1cn(Cc2ccc(C(F)(F)F)cc2)nn1)Nc1ccc(CCCCc2nnc(NC(=O)Cc3ccccn3)s2)nn1	–
230 nM	190 nM	150 nM	630 nM	COc1ccc(Cn2cc(CCC(=O)Nc3ccc(CCCCc4nnc(NC(=O)Cc5ccccn5)s4)nn3)nn2)cc1	–
1090 nM	1220 nM	1110 nM	350 nM	O=C(CCc1cn(Cc2ccc(F)cc2)nn1)Nc1nnc(CCCCc2nnc(NC(=O)Cc3ccccc3)s2)s1	–
270 nM	460 nM	320 nM	340 nM	Cc1cccc(C)c1Cn1cc(CCC(=O)Nc2ccc(CCCCc3nnc(NC(=O)Cc4ccccn4)s3)nn2)nn1	–
250 nM	390 nM	300 nM	310 nM	O=C(CCc1cn(Cc2ccc(OC(F)(F)F)cc2)nn1)Nc1ccc(CCCCc2nnc(NC(=O)Cc3ccccn3)s2)nn1	–
1570 nM	560 nM	420 nM	1790 nM	Cc1ccc(Cn2cc(CCC(=O)Nc3nnc(CCCCc4nnc(NC(=O)Cc5ccccc5)s4)s3)nn2)cc1	–
3410 nM	1370 nM	1250 nM	1140 nM	O=C(CCc1cn(Cc2ccc(Cl)cc2)nn1)Nc1nnc(CCCCc2nnc(NC(=O)Cc3ccccc3)s2)s1	–
1010 nM	500 nM	280 nM	430 nM	Cc1ccc(Cn2cc(CCC(=O)Nc3nnc(CCCCc4nnc(NC(=O)Cc5ccccc5)s4)s3)nn2)c(C)c1	Kd [3]: 350 nM; ΔTm [4]: 7.7 °C
5140 nM	930 nM	840 nM	2950 nM	N#Cc1ccc(Cn2cc(CCC(=O)Nc3nnc(CCCCc4nnc(NC(=O)Cc5ccccc5)s4)s3)nn2)cc1	–
150 nM	41 nM	27 nM	180 nM	Cc1ccc(Cn2cc(CCC(=O)Nc3ccc(CCCCc4nnc(NC(=O)Cc5ccccn5)s4)nn3)nn2)cc1	Kd [3]: 68 nM; ΔTm [4]: 16.5 °C; solubility thermodynamic at 72 h [5]: 20.8 µg/mL (≈ 34.9 µM); Ratio [6]: 9; logD at 72 h [7]: 1.29
1050 nM	2750 nM	2500 nM	10700 nM	O=C(CCc1cn(Cc2ccc([N+](=O)[O-])cc2)nn1)Nc1nnc(CCCCc2nnc(NC(=O)Cc3ccccc3)s2)s1	–
60 nM	–	–	520 nM	O=C(Cc1cccc(OC(F)(F)F)c1)Nc1ccc(CCCCc2nnc(NC(=O)Cc3ccccn3)s2)nn1	logD at 72 h [7]: 1.9
720 nM	210 nM	110 nM	200 nM	Cc1ccc(Cn2cc(CCC(=O)Nc3ccc(CCCCc4nnc(NC(=O)Cc5ccccn5)s4)nn3)nn2)c(C)c1	–
560 nM	760 nM	510 nM	5490 nM	COc1ccc(Cn2cc(CCC(=O)Nc3nnc(CCCCc4nnc(NC(=O)Cc5ccccc5)s4)s3)nn2)cc1	–
1850 nM	1080 nM	980 nM	4060 nM	O=C(CCc1cn(Cc2ccc(Br)cc2)nn1)Nc1nnc(CCCCc2nnc(NC(=O)Cc3ccccc3)s2)s1	–
740 nM	780 nM	520 nM	760 nM	Cc1cccc(C)c1Cn1cc(CCC(=O)Nc2nnc(CCCCc3nnc(NC(=O)Cc4ccccc4)s3)s2)nn1	–
380 nM	400 nM	330 nM	400 nM	COc1ccc(Cn2cc(CCC(=O)Nc3ccc(CCCCc4nnc(NC(=O)Cc5ccccn5)s4)nn3)nn2)cc1OC	–
450 nM	850 nM	500 nM	800 nM	COc1ccc(Cn2cc(CCC(=O)Nc3nnc(CCCCc4nnc(NC(=O)Cc5ccccc5)s4)s3)nn2)cc1OC	–
–	–	–	–	O=C(CCCC(=O)Nc1ccc(CCCCc2nnc(NC(=O)Cc3ccccn3)s2)nn1)NCCNC(=S)Nc1ccc2c(c1)C1(OC2=O)c2ccc(O)cc2Oc2cc(O)ccc21	Kd [3]: 610 nM; Activity [8]: Dose-dependent effect; Activity [9]: Not Active; Kd [10]: 450 nM; fold change (FC) [11]: 2
4780 nM	920 nM	900 nM	1160 nM	O=C(CCc1cn(Cc2ccccc2)nn1)Nc1nnc(CCCCc2nnc(NC(=O)Cc3ccccc3)s2)s1	–
1020 nM	–	–	2400 nM	O=C(Cc1ccccc1)Nc1nnc(CCSCCc2nnc(NC(=O)Cc3ccccc3)s2)s1	–
